Results on two molecules are retold here after publication PMC6856977 (Molecular Pain, 2018).

In assay [1] the target is hTRPA1 (Homo sapiens, UniProt O75762, C621S/C641S/C665S). As to the kind of experiment: whole-cell patch clamp, evoked inward current. In kind it is cell-based.
The target in assay [2] is hTRPA1 (Homo sapiens, UniProt O75762). As to the kind of experiment: whole-cell patch clamp, evoked inward current. In kind it is cell-based. (Patch clamp records ionic current or voltage across a cell membrane.)
Another assay addresses mTRPA1 (Mus musculus, UniProt Q8BLA8). As to the kind of experiment: whole-cell patch clamp, evoked inward current.
Assay [3] has as its target T1, rTRPV1 (Rattus norvegicus, UniProt O35433). The assay is described as follows: whole-cell patch clamp, block of capsaicin-evoked current. The format is cell-based. Particulars: channel block; capsaicin 100 nM; HEK293t, -60 mV, room temperature, pH 7.4.
Assay [4] has as its target T1, rTRPV1. The assay is described as follows: whole-cell patch clamp, evoked inward current. The format is cell-based. The settings on record: agonist; 10% PG (1366 mM); HEK293t, -60 mV, room temperature, pH 7.4.

T1 sequence (O35433 whole entry): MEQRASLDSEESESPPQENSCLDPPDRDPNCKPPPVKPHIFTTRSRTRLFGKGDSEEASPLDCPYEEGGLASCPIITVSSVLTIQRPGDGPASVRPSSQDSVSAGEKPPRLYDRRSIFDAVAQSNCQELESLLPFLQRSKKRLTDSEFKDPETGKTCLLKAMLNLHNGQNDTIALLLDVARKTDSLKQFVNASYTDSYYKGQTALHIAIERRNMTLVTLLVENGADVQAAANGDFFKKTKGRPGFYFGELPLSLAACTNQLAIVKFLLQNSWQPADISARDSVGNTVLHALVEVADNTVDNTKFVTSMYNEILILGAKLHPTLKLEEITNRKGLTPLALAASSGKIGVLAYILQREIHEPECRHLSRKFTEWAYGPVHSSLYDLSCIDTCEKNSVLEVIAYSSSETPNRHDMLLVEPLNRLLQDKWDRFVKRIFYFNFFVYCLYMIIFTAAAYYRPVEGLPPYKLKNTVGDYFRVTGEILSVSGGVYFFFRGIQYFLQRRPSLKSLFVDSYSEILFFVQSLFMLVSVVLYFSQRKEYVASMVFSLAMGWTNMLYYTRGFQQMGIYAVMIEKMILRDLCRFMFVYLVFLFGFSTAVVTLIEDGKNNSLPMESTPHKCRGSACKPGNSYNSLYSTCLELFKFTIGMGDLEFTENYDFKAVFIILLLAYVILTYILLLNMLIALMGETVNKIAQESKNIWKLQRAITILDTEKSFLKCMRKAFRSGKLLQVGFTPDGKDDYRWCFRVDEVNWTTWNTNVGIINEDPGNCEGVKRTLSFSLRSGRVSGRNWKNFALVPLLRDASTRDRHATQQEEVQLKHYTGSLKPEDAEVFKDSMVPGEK
mTRPA1, sequence (Q8BLA8 whole entry): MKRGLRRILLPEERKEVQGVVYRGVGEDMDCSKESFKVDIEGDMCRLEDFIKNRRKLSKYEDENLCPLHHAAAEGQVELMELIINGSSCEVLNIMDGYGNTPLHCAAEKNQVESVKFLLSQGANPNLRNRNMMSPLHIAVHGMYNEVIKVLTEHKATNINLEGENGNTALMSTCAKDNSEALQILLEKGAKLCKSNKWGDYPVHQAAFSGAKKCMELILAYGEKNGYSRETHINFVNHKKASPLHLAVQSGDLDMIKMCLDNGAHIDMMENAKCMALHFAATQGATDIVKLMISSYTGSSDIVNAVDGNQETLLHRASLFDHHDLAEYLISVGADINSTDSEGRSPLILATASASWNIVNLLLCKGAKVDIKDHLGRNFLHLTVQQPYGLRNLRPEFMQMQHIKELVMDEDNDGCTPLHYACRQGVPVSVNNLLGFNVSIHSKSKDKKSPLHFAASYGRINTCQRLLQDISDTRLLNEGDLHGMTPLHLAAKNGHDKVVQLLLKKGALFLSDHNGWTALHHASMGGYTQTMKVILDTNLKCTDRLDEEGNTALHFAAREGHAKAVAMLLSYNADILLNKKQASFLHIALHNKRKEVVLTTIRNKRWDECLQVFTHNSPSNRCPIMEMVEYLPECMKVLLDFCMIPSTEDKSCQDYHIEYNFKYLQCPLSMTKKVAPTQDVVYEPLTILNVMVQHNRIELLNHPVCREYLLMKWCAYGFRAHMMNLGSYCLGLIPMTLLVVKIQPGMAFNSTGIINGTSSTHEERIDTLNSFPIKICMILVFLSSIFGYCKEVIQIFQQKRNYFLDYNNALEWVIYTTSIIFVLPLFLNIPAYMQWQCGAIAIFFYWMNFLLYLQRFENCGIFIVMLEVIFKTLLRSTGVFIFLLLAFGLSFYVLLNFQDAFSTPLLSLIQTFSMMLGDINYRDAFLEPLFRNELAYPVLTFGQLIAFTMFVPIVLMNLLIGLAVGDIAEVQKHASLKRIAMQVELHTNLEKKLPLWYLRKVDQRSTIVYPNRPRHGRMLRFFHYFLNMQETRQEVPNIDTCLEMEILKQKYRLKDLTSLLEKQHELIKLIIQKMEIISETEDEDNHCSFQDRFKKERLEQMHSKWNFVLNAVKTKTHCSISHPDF
hTRPA1 (Homo sapiens, UniProt O75762, C621S/C641S/C665S), sequence (O75762 whole entry C621S/C641S/C665S): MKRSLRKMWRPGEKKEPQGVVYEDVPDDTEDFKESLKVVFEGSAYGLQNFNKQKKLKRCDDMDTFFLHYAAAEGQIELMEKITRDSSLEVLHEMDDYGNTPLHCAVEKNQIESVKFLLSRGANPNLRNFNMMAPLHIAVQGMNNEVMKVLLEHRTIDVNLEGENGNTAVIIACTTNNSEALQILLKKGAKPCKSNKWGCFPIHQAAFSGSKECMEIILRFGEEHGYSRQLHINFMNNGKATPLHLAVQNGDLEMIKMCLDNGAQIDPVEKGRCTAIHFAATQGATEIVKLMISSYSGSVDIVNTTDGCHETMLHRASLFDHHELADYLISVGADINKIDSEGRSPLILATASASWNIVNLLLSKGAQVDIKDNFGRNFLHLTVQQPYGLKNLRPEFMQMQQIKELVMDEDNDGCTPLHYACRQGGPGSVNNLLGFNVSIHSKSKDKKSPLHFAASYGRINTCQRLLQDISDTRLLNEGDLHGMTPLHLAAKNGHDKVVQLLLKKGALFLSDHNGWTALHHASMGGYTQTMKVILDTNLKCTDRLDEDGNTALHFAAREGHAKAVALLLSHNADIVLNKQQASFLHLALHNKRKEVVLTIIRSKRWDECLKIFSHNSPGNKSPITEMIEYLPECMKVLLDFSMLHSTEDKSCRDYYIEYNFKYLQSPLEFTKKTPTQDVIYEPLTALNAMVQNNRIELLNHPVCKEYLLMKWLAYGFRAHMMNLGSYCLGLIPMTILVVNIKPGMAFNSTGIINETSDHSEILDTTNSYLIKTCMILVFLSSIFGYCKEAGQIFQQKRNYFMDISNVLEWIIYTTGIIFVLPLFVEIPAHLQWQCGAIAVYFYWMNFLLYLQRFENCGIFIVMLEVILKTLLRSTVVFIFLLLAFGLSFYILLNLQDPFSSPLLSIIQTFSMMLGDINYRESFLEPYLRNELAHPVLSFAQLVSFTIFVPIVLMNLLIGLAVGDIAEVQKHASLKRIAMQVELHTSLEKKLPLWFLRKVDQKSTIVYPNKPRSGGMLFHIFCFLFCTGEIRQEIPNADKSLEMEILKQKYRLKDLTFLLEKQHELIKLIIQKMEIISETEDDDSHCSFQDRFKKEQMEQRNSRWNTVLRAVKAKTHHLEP
hTRPA1 (Homo sapiens, UniProt O75762), sequence (O75762 whole entry): as the sequence (O75762 whole entry C621S/C641S/C665S) above, with S621C, S641C, S665C counted along it

`CCOC(=O)c1cncn1[C@H](C)c1ccccc1` [etomidate]: the EC50 on hTRPA1 [1] is approximately 1390 µM; on hTRPA1 [2], 73 µM; on mTRPA1, 375 µM. The “% current reduction at 100 μM” value on rTRPV1 [3] is 32 (95% CI: 20.2–43.8).

Take `CC(O)CO` (centres unmarked) [propylene glycol]: on rTRPV1 [4], the “current density at 10% PG” value was found to be 215 ± 26 pA/pF.

For orientation: EC50 means the midpoint of the concentration-response curve.
